# PubChem BioAssay AID2060489 (Molecular Pharmacology Branch, DTP, NCI, 2025)
# System: 922993-354-T-J3-PDC complex spheroids, viability
# Experiment: Anticancer human tumor 922993-354-T-J3-PDC patient-derived endometrial carcinoma cell line growth inhibition [GQUAD]
# Conditions: for IC50: curve of first compound; for viability, T/C: stronger effect = lower value
# Source text: DNA G-quadruplex Stabilizer Agents in Combinations in Complex Spheroids
# A high-throughput screen of multi-cell type tumor spheroids was designed to identify active combinations of DNA G-quadruplex stabilizer agents and targeted small molecules. Complex spheroids include a stromal component modeled by human endothelial cells (HUVEC) and fibroblasts modeled by human mesenchymal stem cells (MSCs). The concentration ranges selected for each drug and investigational agent were based upon clinically achievable concentrations if the clinical Cmax of the agent was known.
# Compounds. The drugs and investigational agents: pidnarulex (CX-5461; NSC782164), APTO-253 (NSC789042), BRACO-19 (NSC847499), peposertib (NSC802822), ceralasertib (NSC780249), elimusertib (NSC800525), camonsertib (NSC841442), AZD-1390 (NSC803789), olaparib (NSC753686), talazoparib (NSC767125), ART-558 (NSC835418), sotorasib (NSC818433), MRTX-1133 (NSC836407), SN-38 (NSC673596), topotecan (NSC609699), etoposide (NSC141540), doxorubicin (NSC123127), gemcitabine (NSC613327), 5-fluorouracil (NSC19893), paclitaxel (NSC125973), vemurafenib (NSC761431), panobinostat (NSC761190), R-306465 (JNJ-16241199; NSC773264), adavosertib (NSC754352), TP-3654 (NSC805149), carboplatin (NSC241240), KSQ-4279 (NSC840948), and staurosporine (NSC755774) were obtained from the National Cancer Institute (NCI) Developmental Therapeutics Program Chemical Repository (34). The FDA-approved anticancer drug set is available from the NCI Developmental Therapeutics Program. […] The stock solutions were prepared in dimethyl sulfoxide (DMSO, Sigma-Aldrich, St. Louis, MO, cat. D2650) at 800-fold the tested concentration and stored at -70 degrees C prior to their use. All drugs and investigational agents were tested over a range starting from a high concentration at or near the clinical Cmax and decreasing in half-log increments. If the clinical Cmax for an agent had not been determined, the highest concentration tested was 10 microM.
# 2.3 Cell Culture. All cells were maintained in an incubator at 37 degrees C and 5% CO2 with 95% humidity. The PDC lines were cultured according to standard operating procedures established by the NCI PDMR. All PDCs were thawed and cultured in Matrigel-coated flasks prepared with a working solution of 1X Ham's F-12 nutrient mix, without supplementation (Invitrogen, cat. 11765054), 100 U/mL penicillin-streptomycin (Invitrogen, cat. 15140122), and 2.5% Matrigel (Corning Inc., cat. 354248) for the first three passages. The 857933-349-R-J2-PDC line was cultured in 6C/Colon 1B media, which includes advanced DMEM/F-12 (Thermo Fisher Scientific, cat. 12634028), 10 mM HEPES (Thermo Fisher Scientific, cat. 15630080), 1X GlutaMAX supplement (Thermo Fisher Scientific, cat. 35050061), 0.1 mg/mL primocin (InvivoGen, cat. ant-pm-2), 10% defined fetal bovine serum, heat inactivated (HyClone Laboratories Inc., cat. SH30070.03HI), 50% L-WRN conditioned media (ATCC, cat. CRL-3276), 1.25 mM N-Acetyl-L-cysteine (Sigma-Aldrich, cat. A9165), 10 mM nicotinamide (Sigma-Aldrich, cat. N0636), 1X B-27 supplement (Thermo Fisher Scientific, cat. 17504044), 1X N-2 supplement (Thermo Fisher Scientific, cat. 17502048), 10 microM Y-27632 dihydrochloride (Tocris Bioscience, cat. 1254), and 50 ng/mL human EGF recombinant protein (Thermo Fisher Scientific, cat. PHG0311). The 485176-168-R4-J1-PDC line was cultured in Panc media, which includes all 6C/Colon 1B media components plus 100 ng/mL human FGF-10 (Thermo Fisher Scientific, cat. 100-26), 500 nM SB-431542 (Selleckchem, cat. S1067), and gastrin (Tocris, cat. 3006).
# […]
# [1] = second compound 0.0316 µM, first compound 0.0316 µM
# [2] = second compound 0.0316 µM, first compound 0.316 µM
# [3] = second compound 0.1 µM, first compound 0.0316 µM
# [4] = second compound 0.1 µM, first compound 0.316 µM
# [5] = second compound 0.316 µM, first compound 0.0316 µM
# [6] = second compound 0.316 µM, first compound 0.316 µM
# [7] = second compound 1 µM, first compound 0.0316 µM
# [8] = second compound 1 µM, first compound 0.316 µM
# [9] = second compound 3.16 µM, first compound 0.0316 µM
# [10] = second compound 3.16 µM, first compound 0.316 µM
# [11] = second compound 10 µM, first compound 0.0316 µM
# [12] = second compound 10 µM, first compound 0.316 µM
# 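Further: spheroids exposed to compounds for seven days.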
# 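Wherever viability, T/C is given: 100% = DMSO vehicle control viability.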
smiles,measurement,setting,value
C#Cc1c(F)ccc2cc(O)cc(-c3ncc4c(N5CC6CCC(C5)N6)nc(OCC56CCCN5CC(F)C6)nc4c3F)c12 (centres undefined) + CN(C)c1ccc(Nc2c3ccc(NC(=O)CCN4CCCC4)cc3nc3cc(NC(=O)CCN4CCCC4)ccc23)cc1,IC50,second compound 0.0316 µM,> 10000 nM
same,IC50,second compound 0.1 µM,> 10000 nM
same,IC50,second compound 0.316 µM,> 10000 nM
same,IC50,second compound 1 µM,> 10000 nM
same,IC50,second compound 3.16 µM,> 10000 nM
same,IC50,second compound 10 µM,> 10000 nM
same,"viability, T/C",[1],93.8%
same,"viability, T/C","second compound 0.0316 µM, first compound 0.1 µM",78.5%
same,"viability, T/C",[2],97.2%
same,"viability, T/C","second compound 0.0316 µM, first compound 1 µM",86.9%
same,"viability, T/C","second compound 0.0316 µM, first compound 3.16 µM",95.3%
same,"viability, T/C","second compound 0.0316 µM, first compound 10 µM",81.5%
same,"viability, T/C",[3],99.4%
same,"viability, T/C","second compound 0.1 µM, first compound 0.1 µM",89.3%
same,"viability, T/C",[4],94.3%
same,"viability, T/C","second compound 0.1 µM, first compound 1 µM",100%
same,"viability, T/C","second compound 0.1 µM, first compound 3.16 µM",82.3%
same,"viability, T/C","second compound 0.1 µM, first compound 10 µM",95.9%
same,"viability, T/C",[5],71.9%
same,"viability, T/C","second compound 0.316 µM, first compound 0.1 µM",97.4%
same,"viability, T/C",[6],97.7%
same,"viability, T/C","second compound 0.316 µM, first compound 1 µM",81%
same,"viability, T/C","second compound 0.316 µM, first compound 3.16 µM",87%
same,"viability, T/C","second compound 0.316 µM, first compound 10 µM",76%
same,"viability, T/C",[7],71.4%
same,"viability, T/C","second compound 1 µM, first compound 0.1 µM",86.9%
same,"viability, T/C",[8],88.7%
same,"viability, T/C","second compound 1 µM, first compound 1 µM",85.4%
same,"viability, T/C","second compound 1 µM, first compound 3.16 µM",84%
same,"viability, T/C","second compound 1 µM, first compound 10 µM",88.1%
same,"viability, T/C",[9],116%
same,"viability, T/C","second compound 3.16 µM, first compound 0.1 µM",102%
same,"viability, T/C",[10],129%
same,"viability, T/C","second compound 3.16 µM, first compound 1 µM",100%
same,"viability, T/C","second compound 3.16 µM, first compound 3.16 µM",108%
same,"viability, T/C","second compound 3.16 µM, first compound 10 µM",92.8%
same,"viability, T/C",[11],88.3%
same,"viability, T/C","second compound 10 µM, first compound 0.1 µM",133%
same,"viability, T/C",[12],108%
same,"viability, T/C","second compound 10 µM, first compound 1 µM",133%
same,"viability, T/C","second compound 10 µM, first compound 3.16 µM",104%
same,"viability, T/C","second compound 10 µM, first compound 10 µM",94.6%
CCc1c2c(nc3ccc(O)cc13)-c1cc3c(c(=O)n1C2)COC(=O)[C@]3(O)CC + CN(C)c1ccc(Nc2c3ccc(NC(=O)CCN4CCCC4)cc3nc3cc(NC(=O)CCN4CCCC4)ccc23)cc1,IC50,second compound 0.0316 µM,6.5 nM
same,IC50,second compound 0.1 µM,6.99 nM
same,IC50,second compound 0.316 µM,6.11 nM
same,IC50,second compound 1 µM,6.51 nM
same,IC50,second compound 3.16 µM,6.83 nM
same,IC50,second compound 10 µM,8.98 nM
same,"viability, T/C","second compound 0.0316 µM, first compound 0.000999 µM",99.2%
same,"viability, T/C","second compound 0.0316 µM, first compound 0.00316 µM",78.4%
same,"viability, T/C","second compound 0.0316 µM, first compound 0.00999 µM",34.1%
same,"viability, T/C",[1],10.4%
same,"viability, T/C","second compound 0.0316 µM, first compound 0.0999 µM",10.1%
same,"viability, T/C",[2],20.1%
same,"viability, T/C","second compound 0.1 µM, first compound 0.000999 µM",96.4%
same,"viability, T/C","second compound 0.1 µM, first compound 0.00316 µM",94.1%
same,"viability, T/C","second compound 0.1 µM, first compound 0.00999 µM",30%
same,"viability, T/C",[3],7.58%
same,"viability, T/C","second compound 0.1 µM, first compound 0.0999 µM",12%
same,"viability, T/C",[4],16.8%
same,"viability, T/C","second compound 0.316 µM, first compound 0.000999 µM",90.6%
same,"viability, T/C","second compound 0.316 µM, first compound 0.00316 µM",74.3%
same,"viability, T/C","second compound 0.316 µM, first compound 0.00999 µM",32.5%
same,"viability, T/C",[5],9.44%
same,"viability, T/C","second compound 0.316 µM, first compound 0.0999 µM",12.3%
same,"viability, T/C",[6],13.8%
same,"viability, T/C","second compound 1 µM, first compound 0.000999 µM",96%
same,"viability, T/C","second compound 1 µM, first compound 0.00316 µM",77.5%
same,"viability, T/C","second compound 1 µM, first compound 0.00999 µM",34.4%
same,"viability, T/C",[7],12.8%
same,"viability, T/C","second compound 1 µM, first compound 0.0999 µM",11.8%
same,"viability, T/C",[8],17.7%
same,"viability, T/C","second compound 3.16 µM, first compound 0.000999 µM",96.7%
same,"viability, T/C","second compound 3.16 µM, first compound 0.00316 µM",79.8%
same,"viability, T/C","second compound 3.16 µM, first compound 0.00999 µM",36.3%
same,"viability, T/C",[9],11.4%
same,"viability, T/C","second compound 3.16 µM, first compound 0.0999 µM",12.9%
same,"viability, T/C",[10],20.6%
same,"viability, T/C","second compound 10 µM, first compound 0.000999 µM",111%
same,"viability, T/C","second compound 10 µM, first compound 0.00316 µM",89.1%
same,"viability, T/C","second compound 10 µM, first compound 0.00999 µM",49.3%
same,"viability, T/C",[11],14.4%
same,"viability, T/C","second compound 10 µM, first compound 0.0999 µM",17.4%
same,"viability, T/C",[12],23.3%
